*1 amine or outer side, *2 acyl side, *3 side chain or, on linkers, in order; H or OH if unused. Where a SMILES comes first, the peptide text is derived from it. [ ]: non-standard residue; d: D form. Phe(4-(4-Ac-piperazinyl)) = CC(=O)N1CCN(c2ccc(C[C@H](N)C(=O)O)cc2)CC1; Trp(4-Cl)(βS-Me) = C[C@@H](c1c[nH]c2cccc(Cl)c12)[C@H](N)C(=O)O; Trp(βS-Me,4-F) = C[C@@H](c1c[nH]c2cccc(F)c12)[C@H](N)C(=O)O; Bip(4'-COOH) = N[C@@H](Cc1ccc(-c2ccc(C(=O)O)cc2)cc1)C(=O)O; X1 = CC(=O)N1CCN(c2ccc(C[C@H](N[*:1])C(=O)[*:2])cn2)CC1; 1Nal(3S-Me) = C[C@@H](c1cccc2ccccc12)[C@H](N)C(=O)O; Phe(4-COOH) = N[C@@H](Cc1ccc(C(=O)O)cc1)C(=O)O; dαMeDab = C[C@](CCN[*:3])(N[*:1])C(=O)[*:2]; Pro(4R-NH2) = N[C@H]1CN[C@H](C(=O)O)C1; X7 = O=C([C@H](CCN1CCOCC1)N[*:1])[*:2]; AEF = NCCOc1ccc(C[C@H](N)C(=O)O)cc1; hTyr = N[C@@H](CCc1ccc(O)cc1)C(=O)O; hCha = N[C@@H](CCC1CCCCC1)C(=O)O; 4Pal = N[C@@H](Cc1ccncc1)C(=O)O; dNMeA = CN[C@H](C)C(=O)O; Dab = NCC[C@H](N)C(=O)O; Dap = NC[C@H](N)C(=O)O
Target: T1, Recombinant human IL-1β (Homo sapiens, UniProt P01584)
T1 construct: purchased BioLegend 579404
T1 sequence (P01584 117-269): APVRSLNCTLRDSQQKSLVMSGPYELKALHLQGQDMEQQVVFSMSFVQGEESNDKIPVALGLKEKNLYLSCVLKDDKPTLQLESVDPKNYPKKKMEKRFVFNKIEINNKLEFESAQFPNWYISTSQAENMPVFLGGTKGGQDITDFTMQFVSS
Assay: IL-6 assay in MRC5 cells: inhibition of IL-1β induced IL-6 secretion (AlphaLISA)
Type: cell-based
Details: inhibition of IL-1β induced IL-6 secretion in MRC5 cells; read-out: MRC5 IC50
Outline: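 IL-1β at 2×EC80 in seeding medium (EMEM, 0.025% BSA) preincubated 1 h at ambient temperature with compound, then 3000 MRC5 cells/well added and incubated overnight at 37 °C, 5% CO2. IL-6 in conditioned medium quantified by AlphaLISA; IC50 from 4-parameter logistic fit.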

In order of falling IC50:
1. CC(=O)NCCOc1ccc(C[C@@H]2NC(=O)[C@H](Cc3ccc(OCCNC(C)=O)cc3)NC(=O)[C@@H](C)NC(=O)[C@H](CO)NC(=O)[C@H](Cc3c[nH]c4ccccc34)NC(=O)[C@H](Cc3ccc(-c4ccc(C(=O)O)cc4)cc3)NC(=O)CNC(=O)[C@@H](C)N(C)C(=O)[C@H](CC(=O)O)NC(=O)[C@H]([C@@H](C)c3c[nH]c4cccc(F)c34)NC(=O)[C@@H]3C[C@@H](N)CN3C(=O)CNC(=O)[C@H](Cc3ccc(C(=O)O)cc3)NC(=O)[C@H](Cc3c[nH]c4ccccc34)NC2=O)cc1 [Example 173] (cyclo([AEF](Ac)W[Phe(4-COOH)]G[Pro(4R-NH2)][Trp(βS-Me,4-F)]D[dNMeA]G[Bip(4'-COOH)]WS[dA][AEF](Ac)))  0.959 nM
2. CC(=O)NCCOc1ccc(C[C@@H]2NC(=O)[C@H](CCc3ccc(O)cc3)NC(=O)[C@@H](C)NC(=O)[C@H](CCN3CCOCC3)NC(=O)[C@H](Cc3c[nH]c4ccccc34)NC(=O)[C@H](Cc3ccc(-c4ccc(C(=O)O)cc4)cc3)NC(=O)CNC(=O)[C@@H](C)N(C)C(=O)[C@H](CC(=O)O)NC(=O)[C@H]([C@@H](C)c3c[nH]c4cccc(Cl)c34)NC(=O)[C@@H]3C[C@@H](N)CN3C(=O)CNC(=O)[C@H](Cc3ccc(C(=O)O)cc3)NC(=O)[C@H](Cc3c[nH]c4ccccc34)NC2=O)cc1 [Example 141] (cyclo([AEF](Ac)W[Phe(4-COOH)]G[Pro(4R-NH2)][Trp(4-Cl)(βS-Me)]D[dNMeA]G[Bip(4'-COOH)]W[X7][dA][hTyr]))  0.177 nM
3. CC(=O)NCCOc1ccc(C[C@@H]2NC(=O)[C@H](CCc3ccc(O)cc3)NC(=O)[C@@H](C)NC(=O)[C@H](CC(C)C)NC(=O)[C@H](CCCCN)NC(=O)[C@H](Cc3ccc(-c4ccc(C(=O)O)cc4)cc3)NC(=O)CNC(=O)[C@@H](C)N(C)C(=O)[C@H](CC(=O)O)NC(=O)[C@H]([C@@H](C)c3c[nH]c4cccc(F)c34)NC(=O)[C@@H]3C[C@@H](N)CN3C(=O)CNC(=O)[C@H](Cc3ccc(C(=O)O)cc3)NC(=O)[C@H](Cc3c[nH]c4ccccc34)NC2=O)cc1 [Example 159] (cyclo([AEF](Ac)W[Phe(4-COOH)]G[Pro(4R-NH2)][Trp(βS-Me,4-F)]D[dNMeA]G[Bip(4'-COOH)]KL[dA][hTyr]))  0.118 nM
4. CC(=O)NCCOc1ccc(C[C@@H]2NC(=O)[C@H](CCc3ccc(O)cc3)NC(=O)[C@@H](C)NC(=O)[C@H](CC(C)C)NC(=O)[C@H](Cc3c[nH]c4ccccc34)NC(=O)[C@H](Cc3ccc(-c4ccc(C(=O)O)cc4)cc3)NC(=O)CNC(=O)[C@@H](C)N(C)C(=O)[C@H](CC(=O)O)NC(=O)[C@H]([C@@H](C)c3c[nH]c4cccc(Cl)c34)NC(=O)[C@@H]3C[C@@H](N)CN3C(=O)CNC(=O)[C@H](Cc3ccc(C(=O)O)cc3)NC(=O)[C@H](Cc3c[nH]c4ccccc34)NC2=O)cc1 [Example 148] (cyclo([AEF](Ac)W[Phe(4-COOH)]G[Pro(4R-NH2)][Trp(4-Cl)(βS-Me)]D[dNMeA]G[Bip(4'-COOH)]WL[dA][hTyr]))  0.0483 nM
5. CC(=O)N1CCN(c2ccc(C[C@@H]3NC(=O)[C@H](CCC4CCCCC4)NC(=O)[C@@](C)(CCN)NC(=O)CNC(=O)[C@H](Cc4ccncc4)NC(=O)[C@H](Cc4ccc(-c5ccc(C(=O)O)cc5)cc4)NC(=O)CNC(=O)[C@@H](C)N(C)C(=O)[C@H](CC(=O)O)NC(=O)[C@H]([C@@H](C)c4cccc5ccccc45)NC(=O)[C@@H]4C[C@@H](N)CN4C(=O)CNC(=O)[C@H](Cc4ccc(C(=O)O)cc4)NC(=O)[C@H](Cc4c[nH]c5ccccc45)NC3=O)cc2)CC1 [Example 199] (cyclo([Phe(4-(4-Ac-piperazinyl))]W[Phe(4-COOH)]G[Pro(4R-NH2)][1Nal(3S-Me)]D[dNMeA]G[Bip(4'-COOH)][4Pal]G[dαMeDab][hCha]))  0.024 nM
6. CC(=O)N1CCN(c2ccc(C[C@@H]3NC(=O)[C@H](CCC4CCCCC4)NC(=O)[C@@H](C)NC(=O)[C@H](CC(C)C)NC(=O)[C@H](CN)NC(=O)[C@H](Cc4ccc(-c5ccc(C(=O)O)cc5)cc4)NC(=O)CNC(=O)[C@@H](C)N(C)C(=O)[C@H](CC(=O)O)NC(=O)[C@H]([C@@H](C)c4cccc5ccccc45)NC(=O)[C@@H]4C[C@@H](N)CN4C(=O)CNC(=O)[C@H](Cc4ccc(C(=O)O)cc4)NC(=O)[C@H](Cc4c[nH]c5ccccc45)NC3=O)cn2)CC1 [Example 175] (cyclo([X1]W[Phe(4-COOH)]G[Pro(4R-NH2)][1Nal(3S-Me)]D[dNMeA]G[Bip(4'-COOH)][Dap]L[dA][hCha]))  0.016 nM
7. CC(=O)N1CCN(c2ccc(C[C@@H]3NC(=O)[C@H](CCC4CCCCC4)NC(=O)[C@@H](C)NC(=O)[C@H](CC(C)C)NC(=O)[C@H](CCN)NC(=O)[C@H](Cc4ccc(-c5ccc(C(=O)O)cc5)cc4)NC(=O)CNC(=O)[C@@H](C)N(C)C(=O)[C@H](CC(=O)O)NC(=O)[C@H]([C@@H](C)c4cccc5ccccc45)NC(=O)[C@@H]4C[C@@H](N)CN4C(=O)CNC(=O)[C@H](Cc4ccc(C(=O)O)cc4)NC(=O)[C@H](Cc4c[nH]c5ccccc45)NC3=O)cn2)CC1 [Example 174] (cyclo([X1]W[Phe(4-COOH)]G[Pro(4R-NH2)][1Nal(3S-Me)]D[dNMeA]G[Bip(4'-COOH)][Dab]L[dA][hCha]))  0.015 nM

— patent US20230406885A1, “CYCLIC PEPTIDES FOR TRAPPING INTERLEUKIN-1 BETA” (MERCK SHARP & DOHME LLC, priority 2022, published 2023)
